How the values were obtained:
Format in all cases: functional
[1] = Cytotoxicity against human HCT15 cells assessed as cell growth at 5 nM after 48 hrs by SRB assay; conditions: HCT-15, 48 h, read-out: Activity
SK-MEL-2 = assay: Cytotoxicity against human SK-MEL-2 cells assessed as cell growth at 50 uM after 48 hrs by SRB assay; conditions: SK-MEL-2, 48 h, read-out: Activity
[2] = Cytotoxicity against human HCC2998 cells assessed as cell growth at 5 uM after 48 hrs by SRB assay; conditions: HCC 2998, 48 h, read-out: Activity
[3] = Cytotoxicity against human MOLT4 cells assessed as cell growth at 50 uM after 48 hrs by SRB assay; conditions: MOLT-4, 48 h, read-out: Activity
[4] = Cytotoxicity against human OVCAR5 cells assessed as cell growth at 0.5 uM after 48 hrs by SRB assay; conditions: OVCAR-5, 48 h, read-out: Activity
CCRF-CEM = assay: Cytotoxicity against human CCRF-CEM cells assessed as cell growth at 50 uM after 48 hrs by SRB assay; conditions: read-out: Activity
[5] = Cytotoxicity against human TK10 cells assessed as cell growth at 5 uM after 48 hrs by SRB assay; conditions: TK-10, 48 h, read-out: Activity
[6] = Cytotoxicity against human UACC62 cells assessed as cell growth at 50 nM after 48 hrs by SRB assay; conditions: UACC-62, 48 h, read-out: Activity
U-251 = assay: Cytotoxicity against human U251 cells assessed as cell growth at 5 nM after 48 hrs by SRB assay; conditions: U-251, 48 h, read-out: Activity
[7] = Cytotoxicity against human DU145 cells assessed as cell growth at 50 nM after 48 hrs by SRB assay; conditions: DU-145, 48 h, read-out: Activity
786-0 = assay: Cytotoxicity against human 786-0 cells assessed as cell growth at 5 uM after 48 hrs by SRB assay; conditions: 786-0, 48 h, read-out: Activity
[8] = Cytotoxicity against human UACC62 cells assessed as cell growth at 50 uM after 48 hrs by SRB assay; conditions: UACC-62, 48 h, read-out: Activity
[9] = Cytotoxicity against human BT549 cells assessed as cell growth at 50 nM after 48 hrs by SRB assay; conditions: BT-549, 48 h, read-out: Activity
NCI-H322M [10] = assay: Cytotoxicity against human NCI-H322M cells assessed as cell growth at 5 uM after 48 hrs by SRB assay; conditions: read-out: Activity
M14 = assay: Cytotoxicity against human M14 cells assessed as cell growth at 5 nM after 48 hrs by SRB assay; conditions: M14, 48 h, read-out: Activity
[11] = Cytotoxicity against human MOLT4 cells assessed as cell growth at 5 nM after 48 hrs by SRB assay; conditions: MOLT-4, 48 h, read-out: Activity
[12] = Cytotoxicity against human UO31 cells assessed as cell growth at 5 nM after 48 hrs by SRB assay; conditions: UO-31, 48 h, read-out: Activity
[13] = Cytotoxicity against human OVCAR8 cells assessed as cell growth at 50 uM after 48 hrs by SRB assay; conditions: OVCAR-8, 48 h, read-out: Activity
[14] = Cytotoxicity against human DU145 cells assessed as cell growth at 0.5 uM after 48 hrs by SRB assay; conditions: DU-145, 48 h, read-out: Activity
[15] = Cytotoxicity against human COLO205 cells assessed as cell growth at 50 uM after 48 hrs by SRB assay; conditions: COLO 205, 48 h, read-out: Activity
NCI-H522 [16] = assay: Cytotoxicity against human NCI-H522 cells assessed as cell growth at 50 uM after 48 hrs by SRB assay; conditions: NCI-H522, 48 h, read-out: Activity
[17] = Cytotoxicity against human HL-60(TB) cells assessed as cell growth at 5 uM after 48 hrs by SRB assay; conditions: HL-60, 48 h, read-out: Activity
[18] = Cytotoxicity against human SF539 cells assessed as cell growth at 50 uM after 48 hrs by SRB assay; conditions: SF-539, 48 h, read-out: Activity
[19] = Cytotoxicity against human UACC257 cells assessed as cell growth at 50 uM after 48 hrs by SRB assay; conditions: UACC-257, 48 h, read-out: Activity
NCI-H522 [20] = assay: Cytotoxicity against human NCI-H522 cells assessed as cell growth at 10^-5 M after 48 hrs by SRB assay; conditions: NCI-H522, 48 h, read-out: Activity
[21] = Cytotoxicity against human UO31 cells assessed as cell growth at 10^-4 M after 48 hrs by SRB assay; conditions: UO-31, 48 h, read-out: Activity
K562 = assay: Cytotoxicity against human K562 cells assessed as cell growth at 10^-5 M after 48 hrs by SRB assay; conditions: K562, 48 h, read-out: Activity
[22] = Cytotoxicity against human RXF393 cells assessed as cell growth at 10^-6 M after 48 hrs by SRB assay; conditions: RXF 393, 48 h, read-out: Activity
MCF7 = assay: Cytotoxicity against human MCF7 cells assessed as cell growth at 10^-5 M after 48 hrs by SRB assay; conditions: MCF7, 48 h, read-out: Activity
SN12C = assay: Cytotoxicity against human SN12C cells assessed as cell growth at 10^-8 M after 48 hrs by SRB assay; conditions: read-out: Activity
[23] = Cytotoxicity against human RXF393 cells assessed as cell growth at 10^-4 M after 48 hrs by SRB assay; conditions: RXF 393, 48 h, read-out: Activity
NCI-H322M [24] = assay: Cytotoxicity against human NCI-H322M cells assessed as cell growth at 10^-7 M after 48 hrs by SRB assay; conditions: read-out: Activity
[25] = Cytotoxicity against human DU145 cells assessed as cell growth at 10^-4 M after 48 hrs by SRB assay; conditions: DU-145, 48 h, read-out: Activity
[26] = Cytotoxicity against human RPMI8226 cells assessed as cell growth at 10^-6 M after 48 hrs by SRB assay; conditions: RPMI-8226, 48 h, read-out: Activity
[27] = Cytotoxicity against human SNB19 cells assessed as cell growth at 10^-5 M after 48 hrs by SRB assay; conditions: SNB-19, 48 h, read-out: Activity
[28] = Cytotoxicity against human Hs 578T cells assessed as cell growth at 10^-6 M after 48 hrs by SRB assay; conditions: read-out: Activity
[29] = Cytotoxicity against human DU145 cells assessed as cell growth at 10^-8 M after 48 hrs by SRB assay; conditions: DU-145, 48 h, read-out: Activity
[30] = Cytotoxicity against human COLO205 cells assessed as cell growth at 10^-8 M after 48 hrs by SRB assay; conditions: COLO 205, 48 h, read-out: Activity
[31] = Cytotoxicity against human OVCAR3 cells assessed as cell growth at 10^-4 M after 48 hrs by SRB assay; conditions: OVCAR-3, 48 h, read-out: Activity
[32] = Cytotoxicity against human HCT15 cells assessed as cell growth at 10^-5 M after 48 hrs by SRB assay; conditions: HCT-15, 48 h, read-out: Activity
[33] = Cytotoxicity against human UACC62 cells assessed as cell growth at 10^-7 M after 48 hrs by SRB assay; conditions: UACC-62, 48 h, read-out: Activity
NCI-H23 = assay: Cytotoxicity against human NCI-H23 cells assessed as cell growth at 10^-5 M after 48 hrs by SRB assay; conditions: NCI-H23, 48 h, read-out: Activity

## CCCCCCCCCC(=O)Oc1ccc(/C(=C(/C)c2ccccc2)c2ccc(OCCN3CCCC3)cc2)cc1
[1]
  growth at 0.005 µM: 98%
SK-MEL-2
  growth at 50 µM: -79%
[2]
  growth at 5 µM: 90%
[3]
  growth at 50 µM: -53%
[4]
  growth at 0.5 µM: 77%
CCRF-CEM
  growth at 50 µM: -47%
[5]
  growth at 5 µM: 95%
[6]
  growth at 0.05 µM: 99%
U-251
  growth at 0.005 µM: 98%
[7]
  growth at 0.05 µM: 98%
786-0
  growth at 5 µM: 93%
[8]
  growth at 50 µM: -90%
[9]
  growth at 0.05 µM: 92%
NCI-H322M [10]
  growth at 5 µM: 85%
M14
  growth at 0.005 µM: 98%
[11]
  growth at 0.005 µM: 97%
[12]
  growth at 0.005 µM: 95%
[13]
  growth at 50 µM: -58%
[14]
  growth at 0.5 µM: 81%
[15]
  growth at 50 µM: -89%
NCI-H522 [16]
  growth at 50 µM: -74%
[17]
  growth at 5 µM: 94%
[18]
  growth at 50 µM: -82%
[19]
  growth at 50 µM: -91%

## C/C(=C(/c1ccc(O)cc1)c1ccc(OCCN2CCCC2)cc1)c1ccccc1
NCI-H522 [20]
  growth at 10 µM: -38%
[21]
  growth at 100 µM: -92%
K562
  growth at 10 µM: -38%
[22]
  growth at 1 µM: 87%
MCF7
  growth at 10 µM: -47%
SN12C
  growth at 0.01 µM: 101%
[23]
  growth at 100 µM: -81%
NCI-H322M [24]
  growth at 0.1 µM: 95%
[25]
  growth at 100 µM: -100%
[26]
  growth at 1 µM: 92%
[27]
  growth at 10 µM: -10%
[28]
  growth at 1 µM: 95%
[29]
  growth at 0.01 µM: 98%
[30]
  growth at 0.01 µM: 93%
[31]
  growth at 100 µM: -100%
[32]
  growth at 10 µM: -41%
[33]
  growth at 0.1 µM: 101%
NCI-H23
  growth at 10 µM: 29%
